Assay results published in EPA's ToxRefDB 2.

Assays:
rat [1] = conditions: Subchronic oral toxicity in rodents, Fischer, Feed, dose end: 13 week, group: systemic
rat [2] = conditions: Carcinogenicity, fischer, Oral, Feed, dose end: 105 week, group: systemic
mouse [3] = conditions: Multigenerational reproductive toxicity study, b6c3f1, Oral, Feed, dose end: 2 generation
mouse [4] = conditions: Carcinogenicity, b6c3f1, Oral, Feed, dose end: 2 year, group: systemic
rat [5] = conditions: Subchronic oral toxicity in rodents, fischer, Feed, dose end: 13 week, group: systemic
rat [6] = conditions: Combined chronic toxicity/carcinogenicity, fischer, Oral, Feed, dose end: 2 year, group: systemic
mouse [7] = conditions: Subchronic oral toxicity in rodents, b6c3f1, Feed, dose end: 13 week, group: systemic
dog [8] = conditions: Chronic toxicity; beagle; Oral; Capsule; dose end: 12 month; group: systemic; systemic / clinical chemistry / urea nitrogen / urea + systemic / in life observation / clinical signs / altered breathing rate + systemic…
mouse [9] = conditions: Carcinogenicity, swiss albino, Oral, Feed, dose end: 18 month, group: systemic
mouse [10] = conditions: Carcinogenicity, cd1, Oral, Feed, dose end: 18 month, group: systemic
rat [11] = conditions: Reproduction/developmental toxicity screening test, sprague dawley, Oral, Water, dose end: 1 generation, group: parental
rat [12] = conditions: Subchronic oral toxicity in rodents, sprague dawley, Water, dose end: 13 week, group: systemic
rat [13] = conditions: Combined chronic toxicity/carcinogenicity, fischer, Oral, Water, dose end: 105 week, group: systemic
mouse [14] = conditions: Combined chronic toxicity/carcinogenicity, b6c3f1, Oral, Water, dose end: 105 week, group: systemic
rat [15] = conditions: Subchronic oral toxicity in rodents, fischer, Water, dose end: 14 week, group: systemic
rat [16] = conditions: Subchronic oral toxicity in rodents, other, Gavage/Intubation, dose end: 90 day, group: systemic
mouse [17] = conditions: Subchronic oral toxicity in rodents, b6c3f1, Water, dose end: 14 week, group: systemic
rat [18] = conditions: Reproduction/developmental toxicity screening test; sprague dawley; Oral; Water; dose end: 1 PND; group: parental; systemic / in life observation / water consumption / water consumption
rat [19] = conditions: Subchronic oral toxicity in rodents, other, Gavage/Intubation, dose end: 90 day, group: systemic; remark: listed apart in the source
dog [20] = conditions: Subchronic oral toxicity in nonrodent, beagle, Capsule, dose end: 90 day, group: systemic
mouse [21] = conditions: Subchronic oral toxicity in rodents, b6c3f1, Feed, dose end: 45 day, group: systemic, systemic / in life observation / mortality / mortality
rat [22] = conditions: Carcinogenicity; fischer; Oral; Feed; dose end: 2 year; group: systemic; systemic / in life observation / body weight / body weight
mouse [23] = conditions: Carcinogenicity; b6c3f1; Oral; Feed; dose end: 2 year; group: systemic; systemic / in life observation / body weight / body weight
rat [24] = conditions: Subchronic oral toxicity in rodents, fischer, Feed, dose end: 45 day, group: systemic
[25] = systemic / clinical chemistry / creatinine / creatinine + systemic / urinalysis / specific gravity/osmolality / specific gravity/osmolality…
[26] = systemic / in life observation / body weight / body weight gain + systemic / in life observation / body weight / body weight + systemic / …
[27] = systemic / pathology microscopic / kidney / hyperplasia + systemic / pathology microscopic / pancreas / hyperplasia
[28] = systemic / pathology microscopic / kidney / hyperplasia + systemic / pathology microscopic / pancreas / hyperplasia + systemic / pathology …
[29] = group: offspring, systemic / in life observation / body weight / offspring (pup) weight
[30] = group: parental, systemic / in life observation / body weight / body weight + systemic / in life observation / food consumption / food consumption + systemic…
[31] = group: parental, systemic / in life observation / body weight / body weight + systemic / organ weight / kidney / relative to body weight + systemic / in life…
[32] = group: reproductive, reproductive / reproductive performance / reproductive performance other / NOS + reproductive / reproductive performance / estrous cycle / …
[33] = systemic / in life observation / body weight / body weight + systemic / pathology microscopic / lung / hyperplasia
[34] = systemic / pathology microscopic / lung / adenoma/carcinoma combined
[35] = systemic / pathology microscopic / kidney / hyaline droplet
[36] = systemic / pathology microscopic / kidney / hyperplasia + systemic / pathology microscopic / kidney / pigmentation
[37] = systemic / pathology microscopic / kidney / hyperplasia + systemic / pathology microscopic / kidney / pigmentation + systemic / pathology …
[38] = systemic / in life observation / body weight / body weight + systemic / in life observation / body weight / body weight gain
[39] = systemic / organ weight / kidney / absolute + systemic / organ weight / kidney / relative to body weight + systemic / organ weight / liver…
[40] = systemic / pathology microscopic / liver / adenoma + systemic / pathology microscopic / liver / adenoma/carcinoma combined + systemic / …
[41] = systemic / pathology microscopic / liver / adenoma/carcinoma combined + systemic / hematology / erythrocyte (rbc) count differential / …
[42] = systemic / in life observation / food consumption / food consumption + systemic / in life observation / water consumption / water …
[43] = systemic / in life observation / water consumption / water consumption
[44] = systemic / pathology gross / thyroid gland / enlarged + systemic / pathology microscopic / thyroid gland / cellular alteration
[45] = systemic / pathology gross / thyroid gland / enlarged + systemic / pathology microscopic / thyroid gland / cellular alteration + systemic / …
[46] = systemic / pathology microscopic / esophagus / hyperkeratosis + systemic / pathology microscopic / oral mucosa / [other] + systemic / …
[47] = systemic / in life observation / body weight / body weight
[48] = systemic / clinical chemistry / alanine aminotransferase (alt/sgpt) / alanine aminotransferase (alt/sgpt) + systemic / clinical chemistry / …
[49] = systemic / pathology gross / sperm measure / sperm motility
[50] = systemic / organ weight / thymus / absolute + systemic / organ weight / thymus / relative to body weight + systemic / organ weight / thymus…
[51] = systemic / in life observation / water consumption / water consumption + systemic / pathology gross / sperm measure / sperm motility
[52] = systemic / clinical chemistry / 5' nucleotidase / 5' nucleotidase + systemic / clinical chemistry / protein / protein + systemic / in life …
[53] = systemic / clinical chemistry / 5' nucleotidase / 5' nucleotidase + systemic / organ weight / liver / relative to body weight + systemic / …
[54] = systemic / clinical chemistry / alkaline phosphatase (alp/alk) / alkaline phosphatase (alp/alk) + systemic / clinical chemistry / calcium / …
[55] = systemic / in life observation / body weight / body weight + systemic / in life observation / mortality / mortality

In the case of `OCC(CO)(CCBr)CCBr` [2,2-Bis(bromoethyl)-1,3-propanediol], the LEL (rat [1]; [25]) is reported as 100 mg/kg/day, the NEL (rat [1]; [25]) is reported as < 100 mg/kg/day and the LOAEL (rat [1]; [26]) is reported as 400 mg/kg/day. The NOAEL (rat [1]; [26]) was 200 mg/kg/day, the LOAEL (rat [2]; [27]) was 100 mg/kg/day and the NOAEL (rat [2]; [27]) was < 100 mg/kg/day. The LEL (rat [2]; [28]) was 100 mg/kg/day and the NEL (rat [2]; [28]) was < 100 mg/kg/day.
For `O=C(O)c1ccc([N+](=O)[O-])cc1` [4-Nitrobenzoic acid], the LEL (mouse [3]; [29]) was 500 mg/kg/day, the LOAEL (mouse [3]; [29]) was > 2400 mg/kg/day and the NEL (mouse [3]; [29]) was < 500 mg/kg/day. The NOAEL (mouse [3]; [29]) was ≥ 2400 mg/kg/day, the LEL (mouse [3]; [30]) was 500 mg/kg/day and the NEL (mouse [3]; [30]) was < 500 mg/kg/day. The LOAEL (mouse [3]; [31]) was > 2400 mg/kg/day, the NOAEL (mouse [3]; [31]) was ≥ 2400 mg/kg/day and the LOAEL (mouse [3]; [32]) was > 2400 mg/kg/day. The NEL (mouse [3]; [32]) was 500 mg/kg/day, the NOAEL (mouse [3]; [32]) was ≥ 2400 mg/kg/day and the LEL (mouse [3]; group: reproductive, reproductive / reproductive performance / reproductive performance other / NOS + reproductive / reproductive performance / gestational …) was 1100 mg/kg/day. The LOAEL (mouse [4]; [33]) was > 675 mg/kg/day, the NOAEL (mouse [4]; [33]) was ≥ 675 mg/kg/day and the LEL (mouse [4]; [34]) was 170 mg/kg/day. The NEL (mouse [4]; [34]) was < 170 mg/kg/day, the LOAEL (rat [5]; systemic / in life observation / body weight / body weight gain + systemic / organ weight / spleen / relative to body weight + systemic / …) was 310 mg/kg/day and the LEL (rat [5]; [35]) was 40 mg/kg/day. The NEL (rat [5]; [35]) was < 40 mg/kg/day, the NOAEL (rat [5]; systemic / pathology microscopic / kidney / hyaline droplet + systemic / in life observation / body weight / body weight gain + systemic / …) was 160 mg/kg/day and the LEL (rat [6]; [36]) was 50 mg/kg/day. The NEL (rat [6]; [36]) was < 50 mg/kg/day, the LOAEL (rat [6]; [37]) was 100 mg/kg/day and the NOAEL (rat [6]; [37]) was 50 mg/kg/day. For the same compound, the LEL (mouse [7]; [38]) was 170 mg/kg/day, the LOAEL (mouse [7]; [38]) was 670 mg/kg/day and the NEL (mouse [7]; [38]) was < 170 mg/kg/day. It also gave an NOAEL (mouse [7]; systemic / in life observation / body weight / body weight + systemic / in life observation / body weight / body weight gain + systemic / …) of 330 mg/kg/day.
Work on `N#Cc1cc(Br)c(O)c(Br)c1` [Bromoxynil] yielded an LEL (dog [8]) of 1.5 mg/kg/day, an LOAEL (dog [8]) of 1.5 mg/kg/day and an NEL (dog [8]) of 0.3 mg/kg/day. For the same compound, the NOAEL (dog [8]) was 0.3 mg/kg/day, the LOAEL (mouse [9]; [39]) was > 13.3 mg/kg/day and the NOAEL (mouse [9]; [39]) was ≥ 13.3 mg/kg/day. It also gave an NEL (mouse [9]; systemic / pathology microscopic / liver / adenoma + systemic / pathology microscopic / liver / carcinoma + systemic / organ weight / liver…) of 1.33 mg/kg/day, an LEL (mouse [9]; systemic / pathology microscopic / liver / carcinoma + systemic / pathology microscopic / liver / hyperplasia) of 4 mg/kg/day and an LOAEL (mouse [10]; [40]) of 12 mg/kg/day. For the same compound, the NOAEL (mouse [10]; [40]) was 3.1 mg/kg/day, the LEL (mouse [10]; [41]) was 3.1 mg/kg/day and the NEL (mouse [10]; [41]) was < 3.1 mg/kg/day.
With `N#CC(Br)Br` [Dibromoacetonitrile] the LOAEL (rat [11]; [42]) was > 8.2 mg/kg/day, the NEL (rat [11]; [42]) was 1.4 mg/kg/day and the NOAEL (rat [11]; [42]) was ≥ 8.2 mg/kg/day. The LEL (rat [11]; [43]) was 3.3 mg/kg/day, the LEL (rat [12]; [44]) was 0.005 mg/kg/day and the NEL (rat [12]; [44]) was < 0.005 mg/kg/day. The LOAEL (rat [12]; [45]) was > 5 mg/kg/day, the NOAEL (rat [12]; [45]) was ≥ 5 mg/kg/day and the LOAEL (rat [13]; systemic / pathology microscopic / esophagus / hyperkeratosis) was 4 mg/kg/day. It also gave an LEL (rat [13]; systemic / pathology microscopic / esophagus / hyperkeratosis + systemic / pathology microscopic / oral mucosa / [other] + systemic / in …) of 4 mg/kg/day, an NEL (rat [13]; [46]) of 2 mg/kg/day and an NOAEL (rat [13]; [46]) of 2 mg/kg/day. It also gave an LOAEL (mouse [14]; [47]) of 11 mg/kg/day, an NOAEL (mouse [14]; systemic / in life observation / body weight / body weight + systemic / pathology microscopic / stomach / squamous cell papilloma + systemic…) of 6 mg/kg/day and an LEL (mouse [14]; [43]) of 3 mg/kg/day. For the same compound, the NEL (mouse [14]; [43]) was < 3 mg/kg/day, the LOAEL (rat [15]; [48]) was > 11 mg/kg/day and the NEL (rat [15]; [48]) was 2 mg/kg/day. The NOAEL (rat [15]; [48]) was ≥ 11 mg/kg/day, the LEL (rat [15]; [49]) was 3 mg/kg/day and the LEL (rat [16]; systemic / clinical chemistry / albumin / albumin) was 23 mg/kg/day. The NEL (rat [16]; systemic / clinical chemistry / albumin / albumin + systemic / clinical chemistry / globulins / globulins + systemic / clinical chemistry / …) was 6 mg/kg/day, the LOAEL (rat [16]; [50]) was > 45 mg/kg/day and the NOAEL (rat [16]; [50]) was ≥ 45 mg/kg/day. For the same compound, the LOAEL (mouse [17]; [51]) was > 18 mg/kg/day, the NOAEL (mouse [17]; [51]) was ≥ 18 mg/kg/day and the LEL (mouse [17]; [49]) was 2 mg/kg/day. The NEL (mouse [17]; [49]) was < 2 mg/kg/day, the LEL (rat [18]) was 5.3 mg/kg/day and the LOAEL (rat [18]) was > 10.8 mg/kg/day. For the same compound, the NEL (rat [18]) was 1.9 mg/kg/day and the NOAEL (rat [18]) was ≥ 10.8 mg/kg/day.
In the case of `N#CC(Cl)Cl` [Dichloroacetonitrile], the LOAEL (rat [19]; [52]) is reported as > 65 mg/kg/day, the NOAEL (rat [19]; [52]) is reported as ≥ 65 mg/kg/day and the LEL (rat [19]; [53]) is reported as 8 mg/kg/day. For the same compound, the NEL (rat [19]; [53]) was < 8 mg/kg/day.
Compound `O=[N+]([O-])[O-].[Ag+]` [Silver nitrate] has an LOAEL (dog [20]; [54]) of 250 mg/kg/day, an NEL (dog [20]; [54]) of 10 mg/kg/day and an NOAEL (dog [20]; [54]) of 50 mg/kg/day. It also gave an LEL (dog [20]; systemic / in life observation / clinical signs / headflicking + systemic / in life observation / clinical signs / salivation + systemic / …) of 50 mg/kg/day.
For `Cc1ccc(S(=O)(=O)NC(=O)NN2CCCCCC2)cc1` [Tolazamide], the LEL (mouse [21]) was 3750 mg/kg/day, the LOAEL (mouse [21]) was > 7500 mg/kg/day and the NEL (mouse [21]) was 1800 mg/kg/day. The NOAEL (mouse [21]) was ≥ 7500 mg/kg/day, the LEL (rat [22]) was 250 mg/kg/day and the LOAEL (rat [22]) was > 500 mg/kg/day. For the same compound, the NEL (rat [22]) was < 250 mg/kg/day, the NOAEL (rat [22]) was ≥ 500 mg/kg/day and the LEL (mouse [23]) was 750 mg/kg/day. For the same compound, the LOAEL (mouse [23]) was 750 mg/kg/day, the NEL (mouse [23]) was < 750 mg/kg/day and the NOAEL (mouse [23]) was < 750 mg/kg/day. It also gave an LEL (rat [24]; [47]) of 1000 mg/kg/day, an LOAEL (rat [24]; [47]) of 1000 mg/kg/day and an NEL (rat [24]; [55]) of 500 mg/kg/day. It also gave an NOAEL (rat [24]; [55]) of 500 mg/kg/day.
